{
  "source": "patent US7196070B2",
  "about": "“Prophylactic and therapeutic treatment of the ductal epithelium of a mammary gland for cancer” (priority 1995, dated 2007)",
  "test_system": "NMU-induced mammary tumors",
  "experiment": "Prophylaxis of NMU-induced mammary tumors after intraductal injection",
  "format": "in vivo, Sprague Dawley rats",
  "conditions": "rat mammary glands, NMU 50 mg/kg i.v. after treatment, monitored 8 months",
  "experimental": "The mammary glands (6 on each side) of six virgin 50 day old Sprague Dawley rats were injected with AdHS-tk on the left side and trypan blue on the right side or left untreated. One rat remained completely untreated with the virus or GCV and served as a positive control for NMU-induced tumorigenesis. On the day of surgery, rats were given an intramuscular injection of 5 μg estradiol valerate and were anesthetized with an isofluorane/O2 mixture. The nipples were cannulated with a 33 gauge needle. Twenty μl of AdHS-tk diluted in trypan blue carrier (1 mM MgCl2, 20 μg/ml polybrene in 10% glycerol, 0.4% trypan blue in saline) at a concentration of 5×10^7 particles/μl were injected into the duct. Carrier control mammary glands received 20 μl of trypan blue carrier alone. An animal was considered treated when at least three glands were successfully injected with trypan blue and another three glands were successfully injected with AdHS-tk. The remaining glands were left untreated. Twelve hrs later, the rats were injected with 125 mg/kg body weight GCV twice daily for three days. […] Five to seven days after GCV treatment, the rats were given an intravenous injection of NMU dissolved in 0.05% acetic acid (Ash Stevens, CO; 50 mg NMU/kg body weight) and were subsequently monitored for general health and the appearance of tumors at weekly intervals for 8 months.",
  "data": [
    {"smiles": "Nc1nc(O)c2ncn(COC(CO)CO)c2n1", "note": "[Ganciclovir, ganciclovir]", "values": [
      {"measurement": "% of Glands with Tumor", "value": 25.0, "unit": "%"},
      {"measurement": "No. of Tumors", "value": 5}
    ]}
  ]
}
